In ChEMBL document CHEMBL4265931, “Identification of dual Sigma1 receptor modulators/acetylcholinesterase inhibitors with antioxidant and neurotrophic properties, as neuroprotective agents” (Eur J Med Chem, 2018):
Activity calls are given as the source filed them. The calls are words filed in the database; no cut-off is given here.

Tests used:
in vitro [1] = settings: human
Description: Cytotoxicity against human SH-SY5Y cells assessed as cell viability at 50 uM after 24 hrs by MTS assay relative to control

in vitro [2] = settings: human; remark: listed apart in the source
in vitro [3] = settings: human; remark: listed apart in the source
Description: Cytotoxicity against human SH-SY5Y cells assessed as cell viability at 10 uM after 48 hrs by MTS assay relative to control

SH-SY5Y [4] = assay: Neuroprotection against H2O2-induced oxidative stress in human SH-SY5Y cells assessed as reduction in ROS generation at 10 uM preincubated for 3 hrs followed by DCFDA addition for 45 mins and subsequent co-treatment with compound and H2O2 for 24 hrs by fluorescence assay relative to control; type: functional
in vitro [5] = settings: human; remark: listed apart in the source
[6] = Antioxidant activity assessed as DPPH free radical scavenging at 465 uM after 20 mins by UV-Vis spectrophotometric analysis relative to control; type: functional
in vitro [7] = settings: human; remark: listed apart in the source
Description: Cytotoxicity against human SH-SY5Y cells assessed as cell viability at 50 uM after 48 hrs by MTS assay relative to control

in vitro [8] = settings: human; remark: listed apart in the source
Description: Cytotoxicity against human SH-SY5Y cells assessed as cell viability at 10 uM after 24 hrs by MTS assay relative to control

[9] = target: Sigma non-opioid intracellular receptor 1 (Cavia porcellus, UniProt Q60492); parameters: species or system Hartley
Sequence of Sigma non-opioid intracellular receptor 1 (Q60492 whole entry): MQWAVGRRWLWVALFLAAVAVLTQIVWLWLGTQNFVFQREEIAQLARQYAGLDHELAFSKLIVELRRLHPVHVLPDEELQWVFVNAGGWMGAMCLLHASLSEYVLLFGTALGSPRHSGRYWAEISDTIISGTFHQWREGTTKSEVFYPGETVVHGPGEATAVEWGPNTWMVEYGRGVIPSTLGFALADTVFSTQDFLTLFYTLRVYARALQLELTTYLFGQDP
Description: Displacement of [3H]DTG from S1R in P2 fraction of Hartley guinea pig whole brain after 90 mins by liquid scintillation counting method

[10] = Neurotrophic activity in Sprague-Dawley rat embryo DRG neuron assessed as increase in neurite length at 2.5 to 5 uM after 24 to 48 hrs relative to control; type: functional
[11] = Neurotoxicity in Sprague-Dawley rat embryo DRG neuron at 2.5 to 5 uM after 24 to 48 hrs; type: toxicity
[12] = target: T1, Sigma intracellular receptor 2 (Rattus norvegicus, UniProt Q5U3Y7); assay: Displacement of [3H]-DTG from S2R in rat liver membranes after 120 mins by scintillation counting assay; type: cell membranes, Membrane
T1 sequence (Q5U3Y7 whole entry): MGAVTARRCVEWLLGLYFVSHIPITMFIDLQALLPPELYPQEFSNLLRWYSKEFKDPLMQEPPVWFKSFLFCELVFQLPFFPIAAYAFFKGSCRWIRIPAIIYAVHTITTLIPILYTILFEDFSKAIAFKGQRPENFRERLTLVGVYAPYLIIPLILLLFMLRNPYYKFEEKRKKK

[13] = Neurotoxicity in Sprague-Dawley rat embryo DRG neuron at 10 uM after 24 hrs; type: toxicity
SH-SY5Y [14] = assay: Cytotoxicity against human SH-SY5Y cells assessed as reduction in cell viability after 24 hrs by MTS assay; type: cell-based
SH-SY5Y [15] = assay: Cytotoxicity against human SH-SY5Y cells assessed as reduction in cell viability after 48 hrs by MTS assay; type: cell-based
[16] = Displacement of [3H]-ifenprodil from GluN1a/GluN2B (unknown origin) expressed in mouse L(tk-) cell membranes after 120 mins by scintillation counting analysis; parameters: species or system Homo sapiens
[17] = Selectivity ratio of Ki for S2R in rat liver membranes to Ki for S1R in guinea pig brain cortex membranes; type: cell membranes
[18] = Neurotoxicity in Sprague-Dawley rat embryo DRG neuron at 10 uM after 48 hrs; type: toxicity
Acetylcholinesterase = Acetylcholinesterase (Electrophorus electricus, UniProt O42275); assay: Inhibition of electric eel AChE using acetylthiocholine iodide as substrate preincubated for 5 mins followed by substrate addition and measured after 2 mins by Ellman's method
Sequence of Acetylcholinesterase (O42275 whole entry): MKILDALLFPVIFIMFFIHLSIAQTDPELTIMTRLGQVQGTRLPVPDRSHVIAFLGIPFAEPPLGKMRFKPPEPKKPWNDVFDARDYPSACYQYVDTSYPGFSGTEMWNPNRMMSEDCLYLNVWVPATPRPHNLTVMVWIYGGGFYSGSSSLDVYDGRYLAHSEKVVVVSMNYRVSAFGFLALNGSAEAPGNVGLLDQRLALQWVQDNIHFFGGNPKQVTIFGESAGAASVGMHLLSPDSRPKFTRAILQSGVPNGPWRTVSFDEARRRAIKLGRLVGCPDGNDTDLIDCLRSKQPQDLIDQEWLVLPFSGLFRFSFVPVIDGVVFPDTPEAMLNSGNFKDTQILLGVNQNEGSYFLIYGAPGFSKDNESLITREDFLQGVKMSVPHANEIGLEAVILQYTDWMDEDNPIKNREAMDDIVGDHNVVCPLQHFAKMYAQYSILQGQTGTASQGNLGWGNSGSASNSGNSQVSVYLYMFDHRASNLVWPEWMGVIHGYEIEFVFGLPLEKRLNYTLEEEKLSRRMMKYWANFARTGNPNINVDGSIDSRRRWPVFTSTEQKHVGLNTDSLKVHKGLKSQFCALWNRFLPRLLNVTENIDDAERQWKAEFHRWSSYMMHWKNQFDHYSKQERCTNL

With COc1cc2c(cc1OC)C(=O)C(CC1CCN(Cc3ccccc3)CC1)C2 (centres undefined) [DONEPEZIL] the viability at 24 h, 50 µM (in vitro [1]; sh-sy5y) was 94.7%, the viability at 48 h, 25 µM (in vitro [2]; sh-sy5y) was 80.4% and the viability at 48 h, 10 µM (in vitro [3]; sh-sy5y) was 94.3%. The Activity (SH-SY5Y [4]) was “inactive”, the viability at 24 h, 25 µM (in vitro [5]; sh-sy5y) was 99.3% and the Activity [6] was 4.4%. It also gave a viability at 48 h, 50 µM (in vitro [7]; sh-sy5y) of 64.4%, a viability at 24 h, 10 µM (in vitro [8]; sh-sy5y) of 100% and a Ki [9] of 14.6 nM.
Cl.O=C(CCN1CCCCC1)c1ccc(-c2ccccc2)cc1 showed a viability at 24 h, 50 µM (in vitro [1]; SH-SY5Y cells) of 64%, a viability at 48 h, 25 µM (in vitro [2]; SH-SY5Y cells) of 49.3% and a viability at 48 h, 10 µM (in vitro [3]; SH-SY5Y cells) of 95.9%. For the same compound, the Activity [10] was 20%, the Activity (SH-SY5Y [4]) was 18% and the Activity [11] was “Non-Toxic”. For the same compound, the viability at 24 h, 25 µM (in vitro [5]; SH-SY5Y cells) was 95.4%, the Activity [6] was 15.5% and the Ki [12] was 462 nM. For the same compound, the viability at 48 h, 50 µM (in vitro [7]; SH-SY5Y cells) was 44.7%, the Activity [13] was “Toxic” and the IC50 (SH-SY5Y [14]; Homo sapiens, SH-SY5Y) was 37 µM. The Activity (SH-SY5Y [14]; human, sh-sy5y) was “Dose-dependent effect”, the IC50 (SH-SY5Y [15]; Homo sapiens, SH-SY5Y) was 22 µM and the Activity (SH-SY5Y [15]; human, sh-sy5y) was “Dose-dependent effect”. It also gave a Ki [16] greater than 1000 nM, a viability at 24 h, 10 µM (in vitro [8]; SH-SY5Y cells) of 104% and a Ratio Ki [17] of 30.8. For the same compound, the Activity [18] was “Non-Toxic” and the IC50 (Acetylcholinesterase) was 13.1 µM.
